Experimental data published in patent US20210308138A1, “TISSUE TRANSGLUTAMINASE MODULATORS FOR MEDICINAL USE” (Aarhus Universitet, priority 2018, published 2021).

Legend:
purified human TG2 = molecular target: T1, purified human TG2 (Homo sapiens, UniProt P21980); assay: Conformational shift assay by native polyacrylamide gel electrophoresis (native-PAGE); type: biochemical; details: TG2 2.5 uM; 1 mM LDN-27219, 1 mM GTPNa2, or 0.2 mM Z-DON with CaCl2
T1 construct: purchased Zedira (Darmstadt, Germany); host or cells: insect cells
T1 sequence (P21980 1-687): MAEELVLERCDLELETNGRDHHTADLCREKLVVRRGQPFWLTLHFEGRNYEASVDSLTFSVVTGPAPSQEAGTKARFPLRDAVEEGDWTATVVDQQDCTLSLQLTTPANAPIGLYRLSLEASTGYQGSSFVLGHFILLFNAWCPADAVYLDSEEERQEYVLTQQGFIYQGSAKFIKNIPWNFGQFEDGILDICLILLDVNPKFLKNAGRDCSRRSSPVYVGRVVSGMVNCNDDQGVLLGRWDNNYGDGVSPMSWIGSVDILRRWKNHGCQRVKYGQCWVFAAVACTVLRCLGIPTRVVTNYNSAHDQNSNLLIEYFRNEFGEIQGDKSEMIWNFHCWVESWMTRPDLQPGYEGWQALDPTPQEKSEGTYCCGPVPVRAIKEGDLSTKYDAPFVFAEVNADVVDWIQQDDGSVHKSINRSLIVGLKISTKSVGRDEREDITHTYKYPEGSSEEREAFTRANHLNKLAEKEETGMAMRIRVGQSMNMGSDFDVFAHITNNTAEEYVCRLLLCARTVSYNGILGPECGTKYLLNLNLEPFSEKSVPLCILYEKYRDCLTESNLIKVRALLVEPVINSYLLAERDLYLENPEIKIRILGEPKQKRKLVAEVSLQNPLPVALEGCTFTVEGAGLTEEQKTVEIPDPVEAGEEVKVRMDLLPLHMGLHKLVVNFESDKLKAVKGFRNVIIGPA
Experimental: For the conformational shift assay using native polyacrylamide gel electrophoresis (native-PAGE) purified and functional human TG2 protein produced in insect cells was obtained from Zedira (Darmstadt, Germany).
Native gel electrophoresis experiments were performed using a method similar to those previously described (Pinkas D M, et al., PLoS Biol, 2007, 5(12), 2788-2796.) (Iversen R, et al., Proc Natl. Acad. Sci., 2014, 111(43), 17146-17151). Briefly, TG2 (2.5 uM) was incubated for 30 min at room temperature in preincubation buffer (75 mM imidazole, 0.5 mM EDTA, 5 mM DTT [pH 7.2], 10% DMSO) with or without 1 mM GTPNa2 or 1 mM LDN-27219 before adding Native Sample Buffer for Protein Gels (Bio-Rad) or in preincubation buffer with 0.2 mM Z-DON 30 min prior addition of 5 mM of CaCl2 for 20 min. Native buffer was added (dilution 1:2), and 1.5 ug of protein was loaded onto a 4-20% Criterion™ TGX Stain-Free™ gel (Bio-Rad) using Tris-glycine as the running buffer. For 75 min, 125 V was applied at 4° C. The bands were visualized using stain-free technology by exposing the gels to UV light and capturing the image using a PXi 4 Touch image analysis system (Syngene). Band intensity analysis was carried out using GeneTools 4 software (Syngene).

Male Wistar rats = assay: Mean arterial pressure (MAP) in vivo measurement after intrajugular infusion; details: VA-5 single dose 1 mg/kg, intrajugular infusion during 3 minutes; adult and older rats
Experimental: For ‘in vivo’ experiments Wistar rats of different age were fasted 8 h before anesthesia with 35 mg/kg of S-ketamine and 50 mg/kg of pentobarbital sodium administered intraperitoneally.
Male Wistar rats with 12-14 and 30-35 weeks of age were anesthetized with s-ketamine (35 mg/kg) and pentobarbital (50 mg/kg) and placed on a heated blanket to maintain body temperature at 37° C. ECG needles were installed for electrocardiographic measurements and a solid state catheter (Millar Inc, Houston, USA) was introduced into the carotid artery to measure MAP. MAP and electrocardiographic data was continuously recorded on a computerized data acquisition system (PowerLab, ADInstruments). Adequate depth of anesthesia was checked periodically by the absence of the toe pinch withdrawal effect and ⅓ of the initial dose of anesthetics was administered intraperitoneally when needed (usually each 1½ h). Changes in MAP and electrocardiographic signal in response to intrajugular infusion during 3 minutes of different doses of LDN-27219 and the corresponding vehicle (PEG-400) were studied.
The Area Under the Curve (AUC) was calculated using Graphpad Prism 5.1 (GraphPad Software, San Diego, Calif., USA) for each response to the change in MAP that was collected during the experiments in example 3. The AUC gives information about the maximal response, and about the duration of the effect.
Rats of different age in these experiments were anesthetized, prepared and catheterized as described in Example 3.

[1] = test system: vascular smooth muscle cells (VSMCs) potassium currents; assay: Whole-cell patch-clamp of K+ outward currents in isolated vascular smooth muscle cells; type: cell-based, rat; details: LDN-27219 3·10^−5 mol/L 12 min; VA-5 5·10^−5 mol/L one hour incubation
Experimental: For isolation of VSMCs, rat mesenteric arteries were dissected as previously described, opened longitudinally and stored in ice-cold dissociation solution containing (mmol/L): 119 NaCl, 4.7 KCl, 1.18 KH2PO4, 1.17 MgSO4, 24.9 NaHCO3, 0.027 EDTA, and 11 glucose, pH=7.4. Arteries were then equilibrated during 10 min in a dissociation solution with bovine albumin serum (BSA; 1 mg/mL) at 37° C. and then exposed to the same solution supplemented with papain (0.5 mg/mL; Worthington Biochemical Corp., Lakewood, N.J., USA) and dithiothreitol (DTT; 1 mg/mL) at 37° C. for 8 min. Arteries were then washed in ice-cold dissociation solution and moved to dissociation solution containing BSA (1 mg/mL) and collagenase (0.7 mg/mL type F and 0.4 mg/mL type H; Worthington Biochemical Corp.) at 37° C. for 3 min. […]
Membrane currents were recorded under the whole-cell configuration of the patch-clamp technique using an Axon Multiclamp 700A amplifier (Axon instruments, Molecular Devices, CA, USA). […] Current-voltage relations were determined using 600 ms voltage ramps from −100 to 160 mV and a holding potential (Vh) of −65 mV for SMCs.
Amplitudes of K^+-outward currents were measured in control conditions and 12 min after the addition of LDN-27219 (3·10^−5 mol/L) to the extracellular solution by a perfusion system.

[2] = test system: small mesenteric arteries; assay: Acetylcholine-induced endothelium-dependent relaxation of phenylephrine pre-contracted small mesenteric arteries, isometric myograph (ex vivo); set-up: species or system Male Wistar rats; details: 1 hour incubation; Z-DON 4·10^−5, Boc-DON 10^−5, VA-5 10^−5 mol/L; 12-14 weeks old rats
Experimental: Small mesenteric arteries were mounted in microvascular myographs (Danish Myotechnology, Aarhus, Denmark) using two 40 μm wires and stretched to their optimal diameter for isometric tension recordings, which corresponded to 0.9 times the estimated internal diameter at 100 mmHg of transmural pressure. PSS solution in the myograph bath was heated to 37° C. and continuously bubbled with 5% CO2 in air to maintain pH (7.4). The vessel viability was tested at the beginning of each experiment by measuring the vasoconstrictor responses to a solution with a high K^+ concentration (KPSS), equivalent to PSS except that NaCl was exchanged for KCl on an equimolar basis, giving a final concentration of 123.7 mmol/L K^+ and the presence of endothelium was confirmed by addition of acetylcholine (ACh) (10^−5) after pre-constriction with noradrenaline (5·10^−6 mol/L), arteries with less than 75% of relaxation were discarded.
Mesenteric arteries from rats of different age were incubated with (10^−6 mol/L) LDN-27219 or vehicle for 25 minutes and pre-contracted with phenylephrine (Phe) (10^−5 mol/L). Then cumulative addition of acetylcholine (ACh) caused the relaxation of the mesenteric arteries and the concentration-response curves were constructed.
Rats of 5-7 weeks age, about 12 weeks age, and more than 30 weeks of age were tested respectively. The results of the isometric tension studies are shown in FIGS. 1, A), B) and C) respectively, each representing a different their age group.
(§1) The small mesenteric arteries were prepared in the same way is described in example 1.

[3] = test system: small mesenteric arteries; details: M. Engholm et al., British J. Pharm. (2016), 173, 839-855; cited from earlier work
[4] = test system: small mesenteric arteries; assay: Direct relaxation of U46619 pre-contracted small mesenteric arteries, concentration-response curves; set-up: species or system Male Wistar rats; details: U46619 4·10^−7 mol/L; LDN-27219 10^−8-10^−5 mol/L; Z-DON 10^−8-3·10^−4 mol/L; endothelium intact
Experimental: as §1
The small mesenteric arteries were pre-contracted with the thromboxane analogue, U46619 (4·10^−7 mol/L) and concentration-response curves for TG2 specific inhibitors, LDN-27219 (10^−8-10^−5 mol/L) and Z-DON (10^−8-3·10^−4 mol/L) were constructed. To study the role of the endothelial pathways in LDN-27219 relaxation, concentration-response curves were constructed for it in arteries whose endothelium had been removed mechanically by rubbing the lumen repeatedly with a human scalp hair.

| Molecule | relative abundance of closed / open conformation of TG2 (purified human TG2) | ACh relaxation compared to the vehicle [2] | other results |
| --- | --- | --- | --- |
| Nc1nc2c(ncn2[C@@H]2O[C@H](COP(=O)([O-])OP(=O)([O-])OP(=O)([O-])[O-])[C@@H](O)[C@H]2O)c(=O)[nH]1.[Na+].[Na+].[Na+].[Na+] [GTP, guanosine 5′-triphosphate sodium salt] | completely force TG2 to its closed conformation |  |  |
| C=CC(=O)NCCCC[C@H](NC(=O)OCc1ccccc1)C(=O)N1CCN(C(=O)c2cc3ccc(O)cc3oc2=O)CC1 [VA-5, (S)-Benzyl (6-acrylamido-1-(4-(7-hydroxy-2-oxo-2H-chromene-3-carbonyl)piperazin-1-yl)-1-oxohexan-2-yl)carbamate, reference compound] |  | slight inhibition of ACh relaxation | mean blood pressure (MAP) (Male Wistar rats): did not produce any change in the mean blood pressure; potassium currents compared to control conditions [1]: significantly smaller potassium currents |
| NCCSSCCN [cystamine] |  |  | effects on endothelial pathways [3]: lacked effects on endothelial pathways |
| Boc-DON-Gln-Ile-Val-OMe [reference compound] |  | no significant effect |  |
| Z-DON-Val-Pro-Leu-OMe [reference compound] | force its open conformation | slight inhibition of ACh relaxation | relaxation of U46619 pre-contracted arteries [4]: failed to induce any vasodilation |
